For experiment [1], the system named is chymotrypsin activities in pancreatic fluid. Briefly: In vitro fluorescence assay using human pancreatic fluid (gPhe-HMRG). Type of experiment: biochemical. How it is done:
(§1) gPhe-HMRG synthesized in Example 1 and gGlu-HMRG, which has a glutamic acid residue, synthesized in Example 2 were used as fluorescent probes to evaluate enzymatic activities of pancreatic fluid obtained from patients of pancreatic cancer or bile duct cancer. 1 μL of a fluorescent probe DMSO solution (1 mM) was dissolved in 180 μL of a 0.1 M sodium phosphate buffer (pH 7.4) at a final concentration of […], 20 μL of a pancreatic fluid was added thereto, and an enzymatic reaction was carried out at 37° C. for 30 minutes. In the case of gPhe-HMRG, a probe solution to which 57 BAEE units of trypsin (bovine pancreas-derived trypsin: SIGMA T1426-100MG) had been added was used to carry out the same enzymatic reaction. In addition, as to inhibitor treatments for comparisons, 1 μL of an aqueous solution (10 mM) of a γ-glutamyltransferase inhibitor (GGs-Top: Wako Pure Chemical 075-05471) in the case of gGlu-HMRG, and 1 μL of a DMSO solution (10 mM) of a chymotrypsin inhibitor (chymostatin: SIGMA C7268) in the case of gPhe-HMRG were each added to probe solutions. For excitation wavelengths and fluorescence wavelengths of a fluorescence measurement device, 478-492 nm and 523-548 nm, respectively, were used.

The subject of another experiment is chymotrypsin. The experiment in a line: Fluorescence response to drain samples of pancreatic fluid, ascitic fluids and intestinal fluids (gPhe-HMRG, gPhe-HMRG-Try). Type of experiment: biochemical, human. How it is done: (§2) Furthermore, response behaviors of the fluorescent probes against body fluids other than pancreatic fluid were compared by using drain samples which were collected from patients who received resectional surgeries of the pancreas. With respect to a total of 76 samples of pancreatic fluid, ascitic fluids and intestinal fluids which were collected from 18 patients, changes in fluorescent intensities were measured for gGlu-HMRG, gPhe-HMRG, and trypsin-added gPhe-HMRG (gPhe-HMRG-Try).
(§3) 180 μL of a probe solution (1.1 μM) was poured into each well of a 96-well microplate reader (SH-8000, Hitachi), and then, 20 μL of a collected sample was added thereto, followed by mixing them. The sample was incubated at 37° C., and fluorescence responses were measured after 5 minutes, 15 minutes and 30 minutes. Trypsin was added to gPhe-HMRG-Try at a final concentration of 0.525 μBTEE/μL. For an excitation wavelength and a fluorescence wavelength for the fluorescence measurement device, 490 nm and 520 nm, respectively, were used. The obtained results of fluorescence responses are shown as average values of respective samples in FIG. 5.

The target in experiment [2] is T1, chymotrypsin (a-chymotrypsin derived from bovine pancreas) (Bos taurus, UniProt P00766).
T1 construct: a-chymotrypsin derived from bovine pancreas; purchased SIGMA C4129-250MG; host or cells: bovine pancreas
The experiment in a line: Fluorescence assay using chymotrypsin. Type of experiment: biochemical. The conditions noted are these: 2.4 μM probe, 4.6 U chymotrypsin. The protocol: 3 μL of a 2.4 mM gPhe-HMRC dimethylsulfoxide (DMSO) solution was dissolved in 3 mL of 0.1 M sodium phosphate buffer (pH 7.4) at a final concentration of 2.4 μM, 4.6 U of chymotrypsin (a-chymotrypsin derived from bovine pancreas: SIGMA C4129-250MG) was added thereto to conduct an enzymatic reaction at 37° C. The excitation wavelength was set to 501 nm.

Experiment [3] is described as follows: Fluorescent imaging of human pancreatic fluid. To be noted: for visualization of adhesion points of the pancreatic fluids: 50 μM probe solution sprayed on paper (gPhe-HMRG with trypsin), after several minutes from spraying. How it is done: Fluorescent imaging of pancreatic fluids on an excised surface of the pancreas was carried out by using gPhe-HMRG and gGlu-HMRG as fluorescent probes. In consideration of, for example, cases where materials retaining pancreatic fluids, which are measurement subjects, are used during surgeries, wiping towels and filter paper for experiments (those having low background fluorescence from paper itself), which had been used in clinical practice, were used as the materials. For specific procedures, apiece of the pancreas immediately after being excised by surgical operations was collected, the wiping towel and filter paper was adhered to its excised surface, thereby adhering the pancreatic fluid thereto. Then, probe solutions of gPhe-HMRG (including trypsin) and gGlu-HMRG were sprayed to the adhered paper to start imaging. For the probe solutions, 10 μL of a DMSO solution (10 mM) of each probe was dissolved in 2 mL of RPMI 1640 medium (GINBO 11835) at a final concentration of 50 μM, and, for gPhe-HMRG, a solution obtained by adding trypsin (52.6 BTEE units) thereto was used. For an excitation filter and a fluorescence filter, long path filters of 435-480 nm and 490 nm, respectively, were used.

Experiment [4] has as its target T2, γ-glutamyltransferase activity in a pancreatic fluid (Homo sapiens, UniProt P19440).
T2 construct: pancreatic fluid obtained from patients of pancreatic cancer or bile duct cancer; from tissue; host or cells: pancreatic fluid from patients with pancreatic cancer or bile duct cancer
The experiment in a line: In vitro fluorescence assay using human pancreatic fluid (gGlu-HMRG). The class given is biochemical. To be noted: 0.9 μM probe, 37° C., 30 minutes. The protocol:
as §1

A further experiment has as its system γ-glutamyltransferase. Briefly: Fluorescence response to drain samples of pancreatic fluid, ascitic fluids and intestinal fluids (gGlu-HMRG). Type of experiment: biochemical, human. To be noted: drain samples from patients, 37° C., 5, 15, 30 minutes. The protocol: as §2, §3

The record followed here is US20150152469A1, “FLUORESCENT PROBE FOR HIGH-SENSITIVITY PANCREATIC FLUID DETECTION, AND METHOD FOR DETECTING PANCREATIC FLUID” (THE UNIVERSITY OF TOKYO, priority 2012, published 2015).

T2 sequence (P19440 1-380 limits assumed): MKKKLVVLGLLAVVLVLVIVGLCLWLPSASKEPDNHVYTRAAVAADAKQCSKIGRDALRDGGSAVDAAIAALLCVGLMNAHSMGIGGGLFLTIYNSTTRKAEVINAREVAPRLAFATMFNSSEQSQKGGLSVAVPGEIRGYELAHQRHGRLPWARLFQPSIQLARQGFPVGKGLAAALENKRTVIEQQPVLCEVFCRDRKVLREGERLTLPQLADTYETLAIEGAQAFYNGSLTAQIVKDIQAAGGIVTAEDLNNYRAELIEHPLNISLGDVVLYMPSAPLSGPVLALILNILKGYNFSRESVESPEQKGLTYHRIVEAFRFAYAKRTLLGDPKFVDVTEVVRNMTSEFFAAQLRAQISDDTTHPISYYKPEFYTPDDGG
T2 sequence (P19440 381-569 limits assumed): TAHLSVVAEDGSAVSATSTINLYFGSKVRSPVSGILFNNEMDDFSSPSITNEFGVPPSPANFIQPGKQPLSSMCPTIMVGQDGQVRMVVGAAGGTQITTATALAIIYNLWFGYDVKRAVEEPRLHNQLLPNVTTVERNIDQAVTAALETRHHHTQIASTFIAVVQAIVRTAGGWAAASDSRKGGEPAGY

“glutamyl-phenylalanine hydroxymethyl rhodamine green [gPhe-HMRG]”: the “change in fluorescent intensity by addition of pancreatic fluid sample, trypsin included” value in experiment [1] (0.9 μM probe, 57 BAEE units trypsin, pancreatic fluid samples No. 1 to No. 5, 37° C., 30 minutes) is listed as “remarkable increases in fluorescent intensities were observed in all the pancreatic fluid samples”. The “fluorescence response against chymotrypsinogen (precursor)” value in experiment [1] (pancreatic fluid without trypsin addition) is “hardly showed a fluorescence response”. Further, the “fluorescent intensity when chymostatin (chymotrypsin inhibitor) was added” value in experiment [1] (pancreatic fluid, trypsin, chymostatin added, 37° C., 30 minutes) is “significantly decreased”. Further, the “fluorescent response to body fluids, trypsin not added” value in the experiment on chymotrypsin (pancreatic fluid, ascitic fluids, intestinal fluids from patients, 37° C., 5, 15, 30 minutes) is reported as “significant fluorescent responses were not observed for all the body fluids”. Moreover, the “fluorescence response compared with gGlu-HMRG” value in the experiment on chymotrypsin (trypsin added) was “superior”. For the same substance, the “change in absorption by chymotrypsin addition” value in experiment [2] (0.1 M sodium phosphate buffer pH 7.4, 37° C.) is listed as “significant increases”. For the same substance, the “change in fluorescent intensity by chymotrypsin addition” value in experiment [2] (pH 7.4, 37° C., excitation 501 nm) is reported as “significant increases”. The “time until fluorescent intensity reached saturation after chymotrypsin addition” value in experiment [2] (fluorescence at 524 nm, 37° C.) was “about 600 seconds”. Besides, the “visualization of adhesion points of the pancreatic fluids” value in experiment [3] is given as “successfully accomplished”. The “fluorescence response at adhesion points of body fluids other than the pancreatic fluid” value in experiment [3] (50 μM probe with trypsin sprayed on paper) was “any fluorescence response was not observed”.

As to “γ-glutamyl hydroxymethyl rhodamine green [gGlu-HMRG]”, the “change in fluorescent intensity by addition of pancreatic fluid sample” value in experiment [4] (20 μL pancreatic fluid (samples No. 1 to No. 5), no inhibitor) was “increases in fluorescent intensities were observed in all pancreatic fluid samples”. Besides, the “fluorescent intensity when γ-glutamyltransferase-specific inhibitor (GGs-Top) was added” value in experiment [4] (pancreatic fluid, inhibitor added) is “significantly decreased”. In addition, the “visualization of adhesion points of the pancreatic fluids” value in experiment [3] is given as “successfully accomplished”. In the experiment with γ-glutamyltransferase, the “fluorescent response to ascitic fluids” value is on record as “increases in fluorescent intensities were observed” and the “fluorescent response to pancreatic fluids” value was “an increase in fluorescent intensities was observed”. Further, the “fluorescent response to intestinal fluids” value with γ-glutamyltransferase (compared with pancreatic fluids) is “a larger increase in fluorescent intensities was observed for intestinal fluids, than for the case of pancreatic fluids”.
